Measured values: the supplement of paper PMC10307832

Legend:
Experiment in all cases: relative viability (nuclei count vs DMSO), 5 days (fraction); higher = more cells survive
Cabozantinib + Olaparib = compound: COc1cc2nccc(Oc3ccc(NC(=O)C4(C(=O)Nc5ccc(F)cc5)CC4)cc3)c2cc1OC [Cabozantinib] + O=C(c1cc(Cc2n[nH]c(=O)c3ccccc23)ccc1F)N1CCN(C(=O)C2CC2)CC1 [Olaparib] (partner 8 µM)
Summary of the method: (§1)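 Nuclei were stained with Hoechst during a one-step fixation (final 0.05% Triton X-100, 1% formaldehyde, 1 ug/ml Hoechst) carried out 5 days after dosing, then counted on 4× images. The cells, lung cancer lines in 1536-well plates, had been dosed by pin tool the day after seeding with one drug alone or a fixed anchor-drug dose plus five library-drug doses (not always all listed) in √10 steps. Relative viability is the nuclei count in treated wells divided by that in vehicle wells, and each value is the median of duplicate plates.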

[1] = compound: COc1cc2nccc(Oc3ccc(NC(=O)C4(C(=O)Nc5ccc(F)cc5)CC4)cc3)c2cc1OC [Cabozantinib] + N=C(N)NC(=N)NCCc1ccccc1 [Phenformin] (partner 250 µM)
Summary of the method: as §1

Kobe2602 + Palbociclib = compound: C1=CC(=CC=C1NC(=S)NNC2=C(C=C(C=C2[N+](=O)[O-])C(F)(F)F)[N+](=O)[O-])F [Kobe2602] + CC(=O)c1c(C)c2cnc(Nc3ccc(N4CCNCC4)cn3)nc2n(C2CCCC2)c1=O [Palbociclib] (partner 0.5 µM)
Summary of the method: as §1

Zosuquidar + Phenformin = compound: O[C@@H](COc1cccc2ncccc12)CN1CCN([C@@H]2c3ccccc3[C@@H]3[C@H](c4ccccc42)C3(F)F)CC1 [Zosuquidar] + N=C(N)NC(=N)NCCc1ccccc1 [Phenformin] (partner 250 µM)
Summary of the method: as §1

Cell Line	relative viability (Cabozantinib + Olaparib; first compound 0.02 µM)	relative viability (Cabozantinib + Olaparib; first compound 0.06325 µM)	relative viability (Cabozantinib + Olaparib; first compound 0.2 µM)	relative viability (Cabozantinib + Olaparib; first compound 0.6325 µM)	relative viability (Cabozantinib + Olaparib; first compound 2 µM)	relative viability ([1]; first compound 0.02 µM)	relative viability ([1]; first compound 0.06325 µM)	relative viability ([1]; first compound 0.2 µM)	relative viability ([1]; first compound 0.6325 µM)	relative viability ([1]; first compound 2 µM)	relative viability (Kobe2602 + Palbociclib; first compound 0.2 µM)	relative viability (Kobe2602 + Palbociclib; first compound 0.6325 µM)	relative viability (Kobe2602 + Palbociclib; first compound 2 µM)	relative viability (Kobe2602 + Palbociclib; first compound 6.325 µM)	relative viability (Kobe2602 + Palbociclib; first compound 20 µM)	relative viability (Zosuquidar + Phenformin; first compound 0.01 µM)	relative viability (Zosuquidar + Phenformin; first compound 0.03162 µM)	relative viability (Zosuquidar + Phenformin; first compound 0.1 µM)	relative viability (Zosuquidar + Phenformin; first compound 0.3162 µM)	relative viability (Zosuquidar + Phenformin; first compound 1 µM)
NCI-H2085	0.842	0.805	0.786	0.781	0.776	0.749	0.752	0.595	0.695	0.616	0.506	0.481	0.508	0.489	0.418	0.736	0.682	0.479	0.877	0.69
RERF-LC-KJ	1.06	1.05	0.96	0.824	0.921	0.442	0.404	0.44	0.418	0.413	0.994	1.02	0.992	0.939	0.728	0.41	0.45	0.397	0.402	0.355
NCI-H1355	0.748	0.747	0.775	0.771	0.714	0.435	0.516	0.475	0.436	0.424	0.341	0.367	0.385	0.398	0.406	0.466	0.438	0.371	0.502	0.471
NCI-H1650	0.831	0.958	0.713	0.753	0.809	0.434	0.556	0.395	0.43	0.376	0.36	0.35	0.365	0.366	0.261	0.391	0.321	0.383	0.443	0.353
PC-14	0.254	0.33		0.269	0.307	0.531	0.93		0.591	0.552	0.502	0.51	0.539	0.455	0.32	0.502	0.533	0.447	0.645	0.47
NCI-H1755	0.868	0.898	0.872	0.785	0.79	0.611	0.624	0.57	0.644	0.561	0.457	0.467	0.484	0.459	0.465	0.425	0.621	0.489	0.624	0.589
NCI-H1651	0.176	0.196	0.202	0.184	0.192	0.316	0.329	0.316	0.298	0.292	0.528	0.52	0.521	0.524	0.518	0.314	0.343	0.282	0.401	0.307
NCI-H661	0.786	0.79	0.779	0.875	0.825	0.273	0.252	0.283	0.335	0.286	0.405	0.416	0.428	0.414	0.475	0.267	0.254	0.275	0.275	0.27
NCI-H358	0.708	0.625	0.565	0.529	0.591	0.283	0.317	0.231	0.296	0.337	0.14	0.128	0.142	0.144	0.138	0.278	0.293	0.281	0.359	0.335
NCI-H1395	0.439	0.466	0.497	0.46	0.454	0.465	0.477	0.472	0.438	0.448	0.636	0.69	0.638	0.589	0.647	0.44	0.482	0.418	0.497	0.466
HCC-15	0.745	0.755	0.73	0.719	0.692	0.366	0.532	0.512	0.478	0.491	0.698	0.72	0.662	0.547	0.618	0.44	0.441	0.436	0.497	0.504
PC-3 [JPC-3]	1.23	1.31		1.2	1.14	0.491	0.505		0.457	0.462	0.587	0.524	0.561	0.482	0.501	0.493	0.493	0.462	0.46	0.453
HOP-62	0.435	0.406	0.608	0.602	0.575	0.706	0.777	0.741	0.693	0.697	0.442	0.499	0.419	0.456	0.485	0.7	0.637	0.688	0.719	0.684
NCI-H460	0.443	0.492	0.445	0.46	0.422	0.535	0.563	0.576	0.512	0.508		0.22	0.184	0.145	0.176	0.48	0.508	0.445	0.529	0.498
NCI-H1793	1.01	0.899		0.756	0.599	0.347	0.441	0.303	0.326	0.296	0.326	0.318	0.304	0.31	0.293	0.387	0.346		0.469	0.359
NCI-H727	0.769	0.828	0.632	0.907	0.606	0.447	0.617	0.477	0.495	0.528	0.665	0.703	0.635		0.704	0.318	0.563	0.466	0.522	0.519

Cell Line	relative viability (Cabozantinib + Olaparib; first compound 0.02 µM)	relative viability (Cabozantinib + Olaparib; first compound 0.06325 µM)	relative viability (Cabozantinib + Olaparib; first compound 0.2 µM)	relative viability (Cabozantinib + Olaparib; first compound 0.6325 µM)	relative viability (Cabozantinib + Olaparib; first compound 2 µM)	relative viability ([1]; first compound 0.02 µM)	relative viability ([1]; first compound 0.06325 µM)	relative viability ([1]; first compound 0.2 µM)	relative viability ([1]; first compound 0.6325 µM)	relative viability ([1]; first compound 2 µM)	relative viability (Kobe2602 + Palbociclib; first compound 0.2 µM)	relative viability (Kobe2602 + Palbociclib; first compound 0.6325 µM)	relative viability (Kobe2602 + Palbociclib; first compound 2 µM)	relative viability (Kobe2602 + Palbociclib; first compound 6.325 µM)	relative viability (Kobe2602 + Palbociclib; first compound 20 µM)	relative viability (Zosuquidar + Phenformin; first compound 0.01 µM)	relative viability (Zosuquidar + Phenformin; first compound 0.03162 µM)	relative viability (Zosuquidar + Phenformin; first compound 0.1 µM)	relative viability (Zosuquidar + Phenformin; first compound 0.3162 µM)	relative viability (Zosuquidar + Phenformin; first compound 1 µM)
NCI-H838	0.847	0.836	0.774	0.699	0.662	0.551	0.592	0.542	0.563	0.41	0.196	0.215	0.199	0.246	0.199	0.568	0.418	0.432	0.663	0.576
NCI-H1734	0.67	0.646	0.711	0.635	0.584	0.368	0.395	0.403	0.406	0.355	0.364	0.412	0.325	0.607	0.334	0.395	0.372	0.407	0.466	0.385
EKVX	1.04	1.01	0.792	0.969	0.805	0.239	0.253	0.223	0.222	0.23	0.456	0.386	0.375	0.408	0.379	0.231	0.252	0.189	0.243	0.227
NCI-H647	0.715	0.656	0.523	0.537	0.51	0.488	0.596	0.541	0.49	0.322	0.334	0.467	0.373	0.425	0.409	0.531	0.39	0.453	0.592	0.462
NCI-H2342	0.436	0.454	0.746	0.495	0.379	0.538	0.785	0.552	0.633	0.545	0.537	0.563	0.467	0.532	0.535	0.581	0.558	0.49	0.581	0.623
LOU-NH91	0.96	0.984	0.681	0.903	0.925	0.602	0.931		0.792	0.731	0.475	0.5	0.537	0.526	0.529	0.62	0.702		0.768	0.692
COR-L23	0.366	0.399	0.39	0.37	0.351	0.433	0.438	0.413	0.443	0.408	0.31	0.296	0.275	0.318	0.333	0.422	0.413	0.416	0.514	0.453
NCI-H1437	0.656	0.633	0.655	0.615	0.607	0.301	0.374	0.284	0.326	0.322	0.308	0.306	0.299	0.337	0.257	0.31	0.327	0.287	0.313	0.328
EPLC-272H	0.906	0.787	0.648	0.884	0.597	0.269	0.331	0.24	0.357	0.291	0.337	0.357	0.352	0.321	0.359	0.344	0.288	0.287	0.241	0.301
ChaGo-K-1	0.446	0.458	0.454	0.411	0.442	0.424	0.519	0.469	0.513	0.501	0.977	0.926	0.83	0.894	0.83	0.573	0.419	0.554	0.506	0.51
NCI-H1666	0.821	0.802	0.719	0.715	0.732	0.568	0.559	0.607	0.544	0.601	0.644	0.628	0.596	0.647	0.619	0.542	0.577	0.571	0.584	0.521
NCI-H441	0.787	0.664	0.615	0.59	0.703	0.556	0.775	1.02	0.883	0.902	0.236	0.198	0.243	0.237	0.221	0.903	0.845	0.643	0.832	0.916
HCC-44	0.988	1.02	0.964	0.997	1	0.102	0.273	0.275	0.224	0.224	0.988	0.932	0.975	0.924	0.887	0.259	0.191	0.161	0.336	0.209
NCI-H23		0.386	0.345	0.304	0.348		0.938	0.8	0.825	0.814	0.559	0.568	0.446	0.522	0.544	0.722	0.708	0.78	0.895	0.805
SW 1573	0.455	0.516	0.447	0.488	0.384	0.45	0.368	0.331	0.365	0.345	0.405	0.477	0.375	0.358	0.281	0.405	0.311	0.457	0.417	0.39
LU99A	0.304	0.258	0.283	0.281	0.261	0.766	0.934	0.925	0.696	0.89	0.424	0.488	0.411	0.473	0.451	0.859	0.793	0.834	0.971	0.808
